Data taken from patent EP3733658B1, “PRENYLATED BENZOPYRANES AS PPAR AGONISTS” (Universitat de València, priority 2017, dated 2019).

How the values were obtained:
[1] = tested on: human umbilical vein endothelial cells (HUVEC); assay: MTT colorimetric cell viability assay, HUVEC; assay type: cell-based; conditions: 30 µM, 24 h
Experimental: To evaluate potential adverse effects (cytotoxicity) of the compounds of the invention, the compounds 1 and 2 for use according to the present invention, compound 8 of the invention, and the reference compounds were evaluated at concentrations of 30 and 100 µM in human neutrophils (Fig. 1A) and primary cultures of human umbilical vein endothelial cells (HUVEC) (Fig. 1B) using two different techniques: MTT colorimetry assay and flow cytometry analysis for cellular apoptosis and survival. In addition, the synthetic compound 9 of the invention was evaluated at 10, 30 and 100 µM (Fig. 2).
MTT assay. The viability of neutrophils and HUVEC was determined by the MTT colorimetric assay MTT (3(4,5-dimethylthiazol-2-yl)-2,5-diphenyltetrazoyl bromide).
Human umbilical vein endothelial cells (HUVEC) were isolated with the collagenase treatment and maintained in a human specific endothelial base medium (EBM-2) supplemented with endothelial growth medium (EGM-2) and 10% FCS. Cells of the first passage were cultured until their confluence in 24-well plates. Before starting each experiment, the cells were incubated for 24 h in a medium containing 1% FBS.
100 µL of neutrophils and HUVEC (2 × 10^5 cells/mL) suspension in supplemented RPMI medium were added to each well of a 96-well plate. The cells were incubated in absence and/or presence of the compounds at 37°C for24h. An MTT solution was prepared (2 mg/mL in PBS). 100 µL of the MTT solution were added to each well and incubated at 37°C for an additional 3 h. The supernatants were discarded and 200 µL of DMSO were added to each well to dissolve the precipitated formazan. The optical densities at two wavelengths (560 and 630 nm) were measured in a spectrophotometer (Infinite M200, Tecan, Mannedorf, Switzerland).

human neutrophils = assay: Annexin V / propidium iodide flow cytometry of apoptosis and survival, neutrophils; assay type: cell-based; conditions: 24 h, compared to the vehicle
Experimental: (§1) In addition, the apoptosis and survival rate for human neutrophils and HUVEC was determined by double staining with annexin V and propidium iodide (PI) by flow cytometry.
(§2) Cytofluorometric analysis of apoptosis and survival. The kit FITC Annexin V Apoptosis Detection kit (BD Bioscience, San Jose, CA) was used. The staining protocol and all the reagents were supplied with the commercial kit. HUVEC were separated from the culture flasks by accutase (StemPro® Accutase® Cell dissociation reagent, Thermofischer Scientific Waltham, MA). Both cell types were incubated at 37°C for 24h in the presence or absence of the test compounds. Confluent HUVEC and freshly isolated neutrophils were washed, resuspended in binding buffer 1x (1 × 10^6 cells/mL) and stained with annexin V conjugated with FITC and propidium iodide (PI) as described in the manufacturer's instructions. The cells were analyzed in a BD FACSVerse Flow Cytometer (BD Biosciences, San Jose, CA) and differentiated as early apoptosis cells (annexin V^+ and PI^-), late apoptosis cells and/or necrotic cells (annexin V^+ and PI^+), and live cells (annexin V^- and PI^-).

HUVEC = assay: Annexin V / propidium iodide flow cytometry of apoptosis and survival, HUVEC; assay type: cell-based, human; conditions: tested concentrations including 100 µM, compared with the vehicle
Experimental: as §1, §2

CXCL16 = assay: Flow cytometry of TNFα-induced CXCL16 expression in HUVEC; assay type: cell-based, human; conditions: 3 µM, TNFα 20 ng/mL 24 h
Experimental: The cells were collected from the flasks using accutase (StemPro® Accutase® Cell Dissociation Reagent, ThermoFischer Scientific, Waltham, MA).
Then they were washed and incubated for 1 h with a APC-conjugated mAb antibody against human VCAM-1 (100 µg/mL; clone STA, BioLegend, San Diego, CA), a FITC- conjugated mAb against human ICAM-1 (400 µg/mL; clone HA58, BioLegend, San Diego, CA), a PE-conjugated mAb against human CX3CL1 (1.25 µg/mL; clone 51637, R&D Systems, Minneapolis, MN) or with a APC-conjugated mAb antibody against human CXCL16 (clone 256213, R&D Systems, Abingdon, UK), all at a dilution of 1:25 in 3% BSA/PBS. The samples were analyzed using a BD FACSVerse Flow Cytometer (BD Biosciences, San Jose, CA).

[2] = Treatment of ob/ob mice: plasma metabolites (cholesterol, HDL-c, triglycerides, free fatty acids, ALT, AST); assay type: in vivo; design: blood levels of free fatty acids: unit not given here; conditions: oral, 4 days; for triglyceride levels in plasma: control 137 mg/dL
Experimental: […]. […] […].
Free fatty acids (FFA) in plasma, and the enzymes aspartate aminotransferase (AST) and alanine aminotransferase (ALT) were determined with a colorimetric assay kit (Sigma-Aldrich, Madrid, Spain). In addition the plasma lipid levels for total cholesterol and triglycerides (TG) were measured by enzymatic methods (WAKO, Cape Charles, VA). The concentration of HDLcholesterol (HDL-c) was also determined with the same method used to measure total cholesterol, after precipitating the apolipoprotein-B (apoB) with dextran sulphate/MgCl2 (Sigma-Aldrich, Madrid, Spain) as previously described (Zieske et al., 2005).

liver = assay: Treatment of ob/ob mice: liver weight and liver triglycerides; assay type: in vivo; conditions: oral, 4 days
Description: 6 animals were used in each group in independent experiments (n=6).

In the case of `CCOC(=O)CCC(C)=CCCC1(C)CCc2cc(OCc3ccc(F)cc3)ccc2O1` (stereo not drawn) [Compound 9], the “cytotoxicity (MTT), with respect to the vehicle” value [1] is reported as 12%, the “effect on neutrophil survival” value (human neutrophils; 30 µM) is reported as 1.07% and the “effect on cell survival” value (human neutrophils; 100 µM) is reported as 1.55%. The toxicity (HUVEC) was “absence of toxicity”, the “expression of CXCL16 induced by TNFα” value (CXCL16) was “significant decrease” and the “triglyceride levels in plasma” value ([2]; 10 mg/Kg/d) was 122 mg/dL. For the same compound, the “triglyceride levels in plasma” value ([2]; 30 mg/Kg/d) was 101 mg/dL, the “blood levels of free fatty acids” value ([2]; 30 mg/Kg/d, control 0.67) was 0.25 and the “triglyceride levels in plasma (in words)” value [2] was “decrease of triglyceride levels in plasma, although not in a significant manner”. For the same compound, the “decrease of AST level compared to the ob/ob control group” value ([2]; plasma, 30 mg/Kg/d) was 28%, the “increase of total cholesterol levels with respect to the control group” value ([2]; plasma, 30 mg/Kg/d) was 50% and the ALT level ([2]; plasma) was “reduced”. The “HDL-c with respect to the control group” value ([2]; plasma, compound 9 10 and 30 mg/Kg/d, WY-14643 30 mg/Kg/d) was “significantly increased”, the “triglyceride content in the liver compared to the ob/ob control group” value (liver; 30 mg/Kg/d) was “did not accumulate significantly” and the “liver weight with respect to the ob/ob control group” value (liver) was “non-significant weight increase”.
